Laboratory results reported in paper PMC11207571, “Applicability of MDR1 Overexpressing Abcb1KO-MDCKII Cell Lines for Investigating In Vitro Species Differences and Brain Penetration Prediction” (Pharmaceutics, 2024).

Assays:
Conditions in all cases: 1 µM, 120 min; mean ± SD
mouse Mdr1a = mouse Mdr1a (Mus musculus, UniProt P21447); assay: Bidirectional transport assay, efflux ratio in Abcb1KO-MDCKII mMDR1 cells
Method in brief: (§1)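 Read-out: SRM mass spectrometry after HPLC separation, with ion transitions tuned per analyte. Pooled samples held three to four compounds each; eluents were water and acetonitrile, both containing 0.1% formic acid.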

human BCRP = biological target: T1, human BCRP (Homo sapiens, UniProt Q9UNQ0); assay: Bidirectional transport assay, efflux ratio in MDCKII-BCRP cells
T1 sequence (Q9UNQ0 1-655): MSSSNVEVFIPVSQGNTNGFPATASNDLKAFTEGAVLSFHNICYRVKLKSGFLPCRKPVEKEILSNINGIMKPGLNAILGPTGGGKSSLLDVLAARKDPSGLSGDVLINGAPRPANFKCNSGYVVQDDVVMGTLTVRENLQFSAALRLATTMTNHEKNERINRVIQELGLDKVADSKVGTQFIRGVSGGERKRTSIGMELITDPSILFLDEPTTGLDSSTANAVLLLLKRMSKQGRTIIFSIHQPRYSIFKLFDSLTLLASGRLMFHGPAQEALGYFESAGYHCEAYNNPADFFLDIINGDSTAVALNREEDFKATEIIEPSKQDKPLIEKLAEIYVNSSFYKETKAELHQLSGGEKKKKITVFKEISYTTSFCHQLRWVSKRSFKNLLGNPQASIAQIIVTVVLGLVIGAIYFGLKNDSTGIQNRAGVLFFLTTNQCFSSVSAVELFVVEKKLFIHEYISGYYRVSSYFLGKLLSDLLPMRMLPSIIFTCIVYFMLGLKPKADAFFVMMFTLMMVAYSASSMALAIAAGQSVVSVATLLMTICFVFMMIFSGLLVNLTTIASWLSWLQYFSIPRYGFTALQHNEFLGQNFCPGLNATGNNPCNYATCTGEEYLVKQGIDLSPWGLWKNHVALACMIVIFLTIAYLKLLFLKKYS
Method in brief: as §1

human MDR1 = human MDR1 (Homo sapiens, UniProt P08183); assay: Bidirectional transport assay, efflux ratio in Abcb1KO-MDCKII hMDR1 cells
Method in brief: as §1

cynomolgus monkey Mdr1 = cynomolgus monkey Mdr1 (Macaca fascicularis, UniProt Q8HZQ6); assay: Bidirectional transport assay, efflux ratio in Abcb1KO-MDCKII cyMDR1 cells
Method in brief: as §1

[1] = system: Abcb1KO-MDCKII-Mock cells; assay: Bidirectional transport assay, efflux ratio in Abcb1KO-MDCKII-Mock control cells
Procedure: Eluent A consisted of 0.1% formic acid in water, eluent B consisted of 0.1% formic acid in acetonitrile. Then, 10 µL samples were injected into the HPLC-MS/MS system. Mass spectrometric detection was performed in SRM mode, and ion transitions for each analyte were optimized during method development. Samples were analyzed in pools, with each pool containing three to four analytes.

rat Mdr1a = rat Mdr1a (Rattus norvegicus, UniProt Q6PSM0); assay: Bidirectional transport assay, efflux ratio in Abcb1KO-MDCKII rMDR1 cells
Method in brief: as §1

Chain of cynomolgus monkey Mdr1 (Q8HZQ6 1-1283): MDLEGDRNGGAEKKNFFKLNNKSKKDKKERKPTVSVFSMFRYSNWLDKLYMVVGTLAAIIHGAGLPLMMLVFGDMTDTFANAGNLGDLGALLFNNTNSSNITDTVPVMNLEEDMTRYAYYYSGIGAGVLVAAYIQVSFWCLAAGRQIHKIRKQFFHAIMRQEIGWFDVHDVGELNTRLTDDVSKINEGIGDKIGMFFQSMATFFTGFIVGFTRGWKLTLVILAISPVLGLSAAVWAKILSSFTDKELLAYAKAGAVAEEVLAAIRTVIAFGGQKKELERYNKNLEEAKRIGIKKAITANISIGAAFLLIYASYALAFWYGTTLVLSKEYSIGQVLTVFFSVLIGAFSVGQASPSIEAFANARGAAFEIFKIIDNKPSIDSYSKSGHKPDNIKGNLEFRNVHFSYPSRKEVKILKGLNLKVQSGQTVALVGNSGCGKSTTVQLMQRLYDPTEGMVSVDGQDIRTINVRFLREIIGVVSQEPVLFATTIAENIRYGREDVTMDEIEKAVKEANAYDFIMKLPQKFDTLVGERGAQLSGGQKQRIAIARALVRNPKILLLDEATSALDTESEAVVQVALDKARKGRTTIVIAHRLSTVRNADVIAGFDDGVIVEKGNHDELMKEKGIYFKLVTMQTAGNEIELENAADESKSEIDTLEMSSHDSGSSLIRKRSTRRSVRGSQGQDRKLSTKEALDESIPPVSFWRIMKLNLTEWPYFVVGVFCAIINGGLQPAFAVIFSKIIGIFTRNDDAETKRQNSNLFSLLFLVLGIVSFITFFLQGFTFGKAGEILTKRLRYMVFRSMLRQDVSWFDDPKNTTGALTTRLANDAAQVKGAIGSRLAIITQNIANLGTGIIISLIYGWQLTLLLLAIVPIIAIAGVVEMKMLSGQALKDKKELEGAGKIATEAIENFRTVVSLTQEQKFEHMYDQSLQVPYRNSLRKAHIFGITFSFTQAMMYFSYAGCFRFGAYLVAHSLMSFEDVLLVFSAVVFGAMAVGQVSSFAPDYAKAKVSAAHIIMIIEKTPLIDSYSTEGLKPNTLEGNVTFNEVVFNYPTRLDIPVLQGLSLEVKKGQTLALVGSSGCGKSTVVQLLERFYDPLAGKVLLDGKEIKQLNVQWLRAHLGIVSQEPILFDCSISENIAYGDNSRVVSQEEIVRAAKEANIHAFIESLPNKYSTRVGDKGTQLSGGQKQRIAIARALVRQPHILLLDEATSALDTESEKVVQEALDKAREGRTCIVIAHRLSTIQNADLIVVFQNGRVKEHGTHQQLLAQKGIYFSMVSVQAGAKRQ
Chain of human MDR1 (P08183 whole entry): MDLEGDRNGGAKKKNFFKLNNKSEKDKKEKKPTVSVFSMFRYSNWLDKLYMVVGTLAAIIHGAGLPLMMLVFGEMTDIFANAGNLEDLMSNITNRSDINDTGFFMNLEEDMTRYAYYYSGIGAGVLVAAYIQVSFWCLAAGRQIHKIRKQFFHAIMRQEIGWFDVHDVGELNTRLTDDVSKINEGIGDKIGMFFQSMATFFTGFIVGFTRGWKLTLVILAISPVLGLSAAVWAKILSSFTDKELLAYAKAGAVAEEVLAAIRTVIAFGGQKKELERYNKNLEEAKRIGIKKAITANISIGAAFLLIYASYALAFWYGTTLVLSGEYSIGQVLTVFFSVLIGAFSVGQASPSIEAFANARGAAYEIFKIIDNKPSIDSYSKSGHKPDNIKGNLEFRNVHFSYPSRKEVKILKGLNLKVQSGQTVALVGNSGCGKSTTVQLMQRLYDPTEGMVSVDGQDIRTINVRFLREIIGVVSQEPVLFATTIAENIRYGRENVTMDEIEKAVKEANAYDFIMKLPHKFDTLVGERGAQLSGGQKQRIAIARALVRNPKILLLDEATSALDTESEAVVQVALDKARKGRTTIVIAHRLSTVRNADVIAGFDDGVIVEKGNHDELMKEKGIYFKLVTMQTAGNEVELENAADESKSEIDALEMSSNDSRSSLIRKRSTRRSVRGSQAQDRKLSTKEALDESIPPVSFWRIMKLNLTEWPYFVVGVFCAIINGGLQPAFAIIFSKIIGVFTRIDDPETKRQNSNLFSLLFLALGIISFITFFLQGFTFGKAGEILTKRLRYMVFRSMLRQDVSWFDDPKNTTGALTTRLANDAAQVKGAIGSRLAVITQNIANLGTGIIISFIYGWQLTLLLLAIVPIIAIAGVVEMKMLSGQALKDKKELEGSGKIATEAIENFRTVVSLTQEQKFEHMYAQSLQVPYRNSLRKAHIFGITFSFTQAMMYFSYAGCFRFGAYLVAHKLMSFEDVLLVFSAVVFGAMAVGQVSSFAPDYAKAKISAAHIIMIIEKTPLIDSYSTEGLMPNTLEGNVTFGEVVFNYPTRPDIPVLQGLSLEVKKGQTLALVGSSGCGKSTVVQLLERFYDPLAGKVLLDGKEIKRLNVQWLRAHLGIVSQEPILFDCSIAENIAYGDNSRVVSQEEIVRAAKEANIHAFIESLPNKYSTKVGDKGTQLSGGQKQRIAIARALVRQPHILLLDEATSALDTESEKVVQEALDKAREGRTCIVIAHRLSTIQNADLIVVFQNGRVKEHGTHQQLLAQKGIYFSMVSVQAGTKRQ
Chain of rat Mdr1a (Q6PSM0 1-1272): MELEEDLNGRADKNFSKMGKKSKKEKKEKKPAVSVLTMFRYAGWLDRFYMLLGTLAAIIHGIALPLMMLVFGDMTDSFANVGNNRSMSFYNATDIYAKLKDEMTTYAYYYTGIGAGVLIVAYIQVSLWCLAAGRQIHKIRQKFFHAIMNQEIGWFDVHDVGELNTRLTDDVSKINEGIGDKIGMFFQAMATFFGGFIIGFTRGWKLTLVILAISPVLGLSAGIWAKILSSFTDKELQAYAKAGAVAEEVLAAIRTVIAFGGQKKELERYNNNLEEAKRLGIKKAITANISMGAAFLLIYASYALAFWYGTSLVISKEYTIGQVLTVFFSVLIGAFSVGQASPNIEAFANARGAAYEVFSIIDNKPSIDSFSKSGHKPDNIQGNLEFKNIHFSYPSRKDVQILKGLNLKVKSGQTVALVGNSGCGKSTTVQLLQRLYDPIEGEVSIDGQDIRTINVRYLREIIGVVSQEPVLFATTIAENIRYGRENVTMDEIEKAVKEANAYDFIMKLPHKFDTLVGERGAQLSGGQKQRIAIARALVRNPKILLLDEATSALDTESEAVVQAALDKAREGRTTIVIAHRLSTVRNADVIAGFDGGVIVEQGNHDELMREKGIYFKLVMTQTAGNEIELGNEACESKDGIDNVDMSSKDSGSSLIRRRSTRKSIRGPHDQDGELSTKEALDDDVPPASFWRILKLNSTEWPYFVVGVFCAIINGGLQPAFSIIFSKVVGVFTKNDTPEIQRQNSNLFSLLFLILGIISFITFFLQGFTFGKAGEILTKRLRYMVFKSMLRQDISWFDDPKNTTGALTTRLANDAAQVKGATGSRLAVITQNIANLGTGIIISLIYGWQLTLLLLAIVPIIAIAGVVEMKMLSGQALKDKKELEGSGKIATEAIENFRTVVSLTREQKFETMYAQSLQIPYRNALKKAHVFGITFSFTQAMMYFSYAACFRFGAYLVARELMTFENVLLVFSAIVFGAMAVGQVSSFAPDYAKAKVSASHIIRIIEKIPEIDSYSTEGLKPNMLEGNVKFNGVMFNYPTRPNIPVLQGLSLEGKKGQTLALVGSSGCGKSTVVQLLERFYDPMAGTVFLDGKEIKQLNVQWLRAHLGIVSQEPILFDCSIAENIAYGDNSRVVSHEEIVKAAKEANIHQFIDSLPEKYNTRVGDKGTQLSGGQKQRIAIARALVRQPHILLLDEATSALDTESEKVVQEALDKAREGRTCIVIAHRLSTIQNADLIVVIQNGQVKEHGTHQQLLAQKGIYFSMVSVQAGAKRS
Chain of mouse Mdr1a (P21447 whole entry): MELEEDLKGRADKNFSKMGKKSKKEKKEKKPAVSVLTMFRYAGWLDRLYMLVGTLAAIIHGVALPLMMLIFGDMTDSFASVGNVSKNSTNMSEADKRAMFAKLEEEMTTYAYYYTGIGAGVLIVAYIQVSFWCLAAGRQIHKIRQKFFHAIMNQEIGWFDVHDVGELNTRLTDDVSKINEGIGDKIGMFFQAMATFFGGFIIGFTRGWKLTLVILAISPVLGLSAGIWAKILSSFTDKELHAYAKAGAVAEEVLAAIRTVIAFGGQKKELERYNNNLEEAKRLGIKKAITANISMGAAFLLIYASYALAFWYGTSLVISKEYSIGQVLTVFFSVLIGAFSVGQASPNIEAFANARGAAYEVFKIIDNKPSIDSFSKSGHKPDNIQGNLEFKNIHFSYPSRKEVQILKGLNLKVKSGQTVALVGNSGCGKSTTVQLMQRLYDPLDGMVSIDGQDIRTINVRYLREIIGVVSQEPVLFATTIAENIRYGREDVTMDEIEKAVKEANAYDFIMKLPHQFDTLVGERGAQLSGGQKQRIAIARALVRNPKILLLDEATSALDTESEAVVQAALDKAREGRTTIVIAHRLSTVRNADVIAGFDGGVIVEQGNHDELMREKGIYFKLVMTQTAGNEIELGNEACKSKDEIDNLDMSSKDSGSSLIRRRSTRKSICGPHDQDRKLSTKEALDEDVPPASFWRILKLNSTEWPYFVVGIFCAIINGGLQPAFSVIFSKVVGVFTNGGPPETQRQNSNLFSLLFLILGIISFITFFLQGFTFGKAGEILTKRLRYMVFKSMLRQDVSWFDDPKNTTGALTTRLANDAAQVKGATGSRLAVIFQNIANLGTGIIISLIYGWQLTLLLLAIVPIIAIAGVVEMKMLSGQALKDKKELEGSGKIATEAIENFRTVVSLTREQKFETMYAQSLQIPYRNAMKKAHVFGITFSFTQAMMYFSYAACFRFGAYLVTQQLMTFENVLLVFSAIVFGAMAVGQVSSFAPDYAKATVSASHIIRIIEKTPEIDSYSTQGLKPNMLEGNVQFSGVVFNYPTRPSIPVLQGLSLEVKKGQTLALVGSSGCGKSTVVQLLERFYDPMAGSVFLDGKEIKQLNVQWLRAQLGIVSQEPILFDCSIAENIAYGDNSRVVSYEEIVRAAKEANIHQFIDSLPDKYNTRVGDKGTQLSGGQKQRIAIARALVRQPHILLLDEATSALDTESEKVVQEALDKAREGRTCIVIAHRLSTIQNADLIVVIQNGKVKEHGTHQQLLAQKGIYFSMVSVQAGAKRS

CN(C)CCC=C1c2ccccc2CCc2ccccc21 [Amitriptylline]
Efflux Ratio in Abcb1KO-MDCKII mMDR1 (mouse Mdr1a): 0.96 ± 0.12
ER in MDCKII BCRP (human BCRP): 0.8 ± 0.07
Efflux Ratio in Abcb1KO-MDCKII hMDR1 (human MDR1): 1.1 ± 0.11
Efflux Ratio in Abcb1KO-MDCKII cyMDR1 (cynomolgus monkey Mdr1): 0.67 ± 0.08
Efflux Ratio in Abcb1KO-MDCKII Mock [1]: 1.05 ± 0.08
Efflux Ratio in Abcb1KO-MDCKII rMDR1 (rat Mdr1a): 0.94 ± 0.14
